Assay results from ChEMBL document CHEMBL5370560, “Isolation of Anti-SARS-CoV-2 Natural Products Extracted from Mentha canadensis and the Semi-synthesis of Antiviral Derivatives” (J Nat Prod, 2023).
pEC50, pIC50: −log10 of the molar value. Activity calls are given as the source filed them. The rule behind the calls is not given here.

How the values were obtained:
SARS-CoV-2 [1] = test: (§1) Antiviral activity against SARS-CoV-2 Delta infected in African green monkey Vero E6 cells assessed as inhibition of plaque formation at 50 uM incubated for 1 hr followed by virus-drug mixture washout and further addition of media without compound for 5 to 7 days by crystal violet staining based assay relative to control; type: functional, Severe acute respiratory syndrome coronavirus 2; conditions: for inhibition at 50 µM: Severe acute respiratory syndrome coronavirus 2, Delta, Vero C1008
SARS-CoV-2 [2] = test: as §1, with “Omicron BA.1” for “Delta”; type: functional, Severe acute respiratory syndrome coronavirus 2; conditions: for inhibition at 50 µM: Severe acute respiratory syndrome coronavirus 2, Omicron BA.1, Vero C1008
[3] = Cytotoxicity against African green monkey Vero E6 cells assessed as reduction in cell viability incubated for 48 hrs by MTT assay; type: toxicity, cell-based, Vero C1008; conditions: chlorocebus sabaeus
SARS-CoV-2 [4] = test: as §1, with “Omicron BA.1” for “Delta”, “5” for “50”; type: functional, Severe acute respiratory syndrome coronavirus 2; conditions: for inhibition at 5 µM: Severe acute respiratory syndrome coronavirus 2, Omicron BA.1, Vero C1008
SARS-CoV-2 [5] = test: as §1, with “5” for “50”, “assay” for “assay relative to control”; type: functional, organism-based; conditions: Severe acute respiratory syndrome coronavirus 2
SARS-CoV-2 [6] = test: as §1, with “0.5” for “50”, “assay” for “assay relative to control”; type: functional, organism-based; conditions: Severe acute respiratory syndrome coronavirus 2
SARS-CoV-2 [7] = test: as §1, with “Omicron BA.1” for “Delta”, “0.5” for “50”, “assay” for “assay relative to control”; type: functional, organism-based; conditions: Severe acute respiratory syndrome coronavirus 2
SARS-CoV-2 [8] = test: as §1, with “5” for “50”; type: functional, Severe acute respiratory syndrome coronavirus 2; conditions: for inhibition at 5 µM: Severe acute respiratory syndrome coronavirus 2, Delta, Vero C1008
SARS-CoV-2 [9] = test: as §1, with “0.5” for “50”; type: functional, Severe acute respiratory syndrome coronavirus 2
SARS-CoV-2 [10] = test: as §1, with “assay” for “assay relative to control”; type: functional, organism-based; conditions: Severe acute respiratory syndrome coronavirus 2
SARS-CoV-2 [11] = test: as §1, with “Omicron BA.1” for “Delta”, “assay” for “assay relative to control”; type: functional, organism-based; conditions: Severe acute respiratory syndrome coronavirus 2
SARS-CoV-2 [12] = test: as §1, with “Omicron BA.1” for “Delta”, “0.5” for “50”; type: functional, Severe acute respiratory syndrome coronavirus 2; conditions: for inhibition at 0.5 µM: Severe acute respiratory syndrome coronavirus 2, Omicron BA.1, Vero C1008
SARS-CoV-2 [13] = test: Antiviral activity against SARS-CoV-2 Delta infected in African green monkey Vero E6 cells assessed as inhibition of plaque formation incubated for 1 hr followed by virus-drug mixture washout and further addition of media without compound for 5 to 7 days by crystal violet staining based assay; type: functional, organism-based; conditions: Severe acute respiratory syndrome coronavirus 2, Delta, Vero C1008
SARS-CoV-2 [14] = test: Antiviral activity against SARS-CoV-2 Omicron BA.1 infected in African green monkey Vero E6 cells assessed as inhibition of plaque formation incubated for 1 hr followed by virus-drug mixture washout and further addition of media without compound for 5 to 7 days by crystal violet staining based assay; type: functional, organism-based; conditions: Severe acute respiratory syndrome coronavirus 2, Omicron BA.1, Vero C1008
[15] = target: Spike glycoprotein (Severe acute respiratory syndrome coronavirus 2) (UniProt P0DTC2); test: Binding affinity to NTA chip immobilised recombinant SARS-CoV-2 Delta spike protein RBD at 50 uM measured for 500 secs by SPR analysis; conditions: time 500.0 sec
SARS-CoV-2 [16] = test: as §1, with “Omicron BA.1” for “Delta”, “100” for “50”; type: functional; conditions: Severe acute respiratory syndrome coronavirus 2, Omicron BA.1, Vero C1008
SARS-CoV-2 [17] = test: as §1, with “100” for “50”; type: functional; conditions: Severe acute respiratory syndrome coronavirus 2, Delta, Vero C1008
SARS-CoV-2 [18] = test: Antiviral activity against SARS-CoV-2 infected in African green monkey Vero E6 cells preincubated for 1 hr followed by addition of fresh medium containing compounds and measured after 24 hrs by qRT-PCR analysis; type: functional, organism-based; conditions: Severe acute respiratory syndrome coronavirus 2, Vero C1008
SARS-CoV-2 [19] = test: (§2) Synergistic antiviral activity against SARS-CoV-2 Delta infected in Vero E6 cells incubated for 1 hr in presence of ivermectin followed by virus-drug mixture washout and further addition of media without compound for 5 to 7 days by crystal violet staining based assay; type: functional, organism-based; conditions: Severe acute respiratory syndrome coronavirus 2
SARS-CoV-2 [20] = test: (§3) Synergistic antiviral activity against SARS-CoV-2 Omicron BA.1 infected in Vero E6 cells incubated for 1 hr in presence of ivermectin followed by virus-drug mixture washout and further addition of media without compound for 5 to 7 days by crystal violet staining based assay; type: functional, organism-based; conditions: Severe acute respiratory syndrome coronavirus 2
SARS-CoV-2 [21] = test: as §2, with “cells assessed as reduction in plaque formation by measuring combination index at ED50” for “cells”, “Chou-Talalay method” for “crystal violet staining based assay”; type: functional, Severe acute respiratory syndrome coronavirus 2
SARS-CoV-2 [22] = test: as §3, with “cells assessed as reduction in plaque formation by measuring combination index at ED50” for “cells”, “Chou-Talalay method” for “crystal violet staining based assay”; type: functional, Severe acute respiratory syndrome coronavirus 2

For `O=C(/C=C/c1ccc(O)c(O)c1)O[C@H](Cc1ccc(O)c(O)c1)C(=O)NCc1ccco1`, the inhibition at 50 µM (SARS-CoV-2 [1]) was 20%, the inhibition at 50 µM (SARS-CoV-2 [2]) was 66% and the CC50 at 48 h [3] was over 100 µM. For the same compound, the inhibition at 5 µM (SARS-CoV-2 [4]) was 29%, the inhibition (SARS-CoV-2 [5]) was “inactive” and the inhibition (SARS-CoV-2 [6]) was “inactive”. For the same compound, the inhibition (SARS-CoV-2 [7]) was “inactive”.
In the case of `COCCNC(=O)[C@@H](Cc1ccc(O)c(O)c1)OC(=O)/C=C/c1ccc(O)c(O)c1`, the inhibition at 50 µM (SARS-CoV-2 [1]) was 23%, the inhibition at 50 µM (SARS-CoV-2 [2]) was 29% and the CC50 at 48 h [3] was over 100 µM. The inhibition at 5 µM (SARS-CoV-2 [4]) was 13%, the inhibition (SARS-CoV-2 [5]) was “inactive” and the inhibition (SARS-CoV-2 [6]) was “inactive”. The inhibition (SARS-CoV-2 [7]) was “inactive”.
With `CCCCCCCCCCCCNC(=O)[C@@H](Cc1ccc(O)c(O)c1)OC(=O)/C=C/c1ccc(O)c(O)c1` the CC50 at 48 h [3] was 17.5 µM, the “inhibition (INH)” value (SARS-CoV-2 [8]) was 78% and the “inhibition (INH)” value (SARS-CoV-2 [9]) was 15%. The “inhibition (INH)” value (SARS-CoV-2 [4]) was 54%, the inhibition (SARS-CoV-2 [10]) was “inactive” and the inhibition (SARS-CoV-2 [11]) was “inactive”. For the same compound, the “inhibition (INH)” value (SARS-CoV-2 [12]) was 17%, the pIC50 (SARS-CoV-2 [13]) was 6.03 and the pIC50 (SARS-CoV-2 [14]) was 6.11. For the same compound, the Activity [15] was “inactive”.
In the case of `C#CCNC(=O)[C@@H](Cc1ccc(O)c(O)c1)OC(=O)/C=C/c1ccc(O)c(O)c1`, the inhibition at 50 µM (SARS-CoV-2 [1]) was 30%, the inhibition at 50 µM (SARS-CoV-2 [2]) was 26% and the CC50 at 48 h [3] was over 100 µM. For the same compound, the inhibition at 5 µM (SARS-CoV-2 [4]) was 17%, the inhibition (SARS-CoV-2 [5]) was “inactive” and the inhibition (SARS-CoV-2 [6]) was “inactive”. The inhibition at 0.5 µM (SARS-CoV-2 [12]) was 17%.
For `CCCCCCNC(=O)[C@@H](Cc1ccc(O)c(O)c1)OC(=O)/C=C/c1ccc(O)c(O)c1`, the inhibition at 50 µM (SARS-CoV-2 [1]) was 95%, the inhibition at 50 µM (SARS-CoV-2 [2]) was 77% and the CC50 at 48 h [3] was over 100 µM. The inhibition at 5 µM (SARS-CoV-2 [8]) was 23%, the inhibition at 5 µM (SARS-CoV-2 [4]) was 21% and the inhibition (SARS-CoV-2 [6]) was “inactive”. It also gave an inhibition at 0.5 µM (SARS-CoV-2 [12]) of 21%.
`O=C(O)/C=C/c1ccc(O)c(O)c1` [CAFFEIC ACID] showed an inhibition at 50 µM (SARS-CoV-2 [1]) of 23%, an inhibition at 100 µM (SARS-CoV-2 [16]) of 42% and an inhibition at 50 µM (SARS-CoV-2 [2]) of 36%. The inhibition at 100 µM (SARS-CoV-2 [17]) was 29%.
For `O=C(/C=C/c1ccc(O)c(O)c1)O[C@H](Cc1ccc(O)c(O)c1)C(=O)O` [ROSMARINIC ACID], the inhibition at 50 µM (SARS-CoV-2 [1]) was 7%, the inhibition at 100 µM (SARS-CoV-2 [16]) was 40% and the inhibition at 50 µM (SARS-CoV-2 [2]) was 33%. The inhibition at 100 µM (SARS-CoV-2 [17]) was 9%.
In the case of `COc1c(O)c(OC)c2oc(-c3ccc(O)cc3)cc(=O)c2c1O`, the inhibition (SARS-CoV-2 [10]) was “Active”.
Compound `O=C(/C=C/c1ccc(O)c(O)c1)O[C@H](Cc1ccc(O)c(O)c1)C(=O)N1CCCCC1` has an inhibition at 50 µM (SARS-CoV-2 [1]) of 33%, an inhibition at 50 µM (SARS-CoV-2 [2]) of 67% and a CC50 at 48 h [3] of over 100 µM. For the same compound, the inhibition at 5 µM (SARS-CoV-2 [4]) was 38%, the inhibition (SARS-CoV-2 [5]) was “inactive” and the inhibition (SARS-CoV-2 [6]) was “inactive”. It also gave an inhibition at 0.5 µM (SARS-CoV-2 [12]) of 24%.
For `O=C(O)[C@H](O)Cc1ccc(O)c(O)c1`, the inhibition at 50 µM (SARS-CoV-2 [1]) was 19%, the inhibition at 100 µM (SARS-CoV-2 [16]) was 40% and the inhibition at 50 µM (SARS-CoV-2 [2]) was 40%. It also gave an inhibition at 100 µM (SARS-CoV-2 [17]) of 19% and a pEC50 (SARS-CoV-2 [18]) of 6.01.
`O=C(/C=C/c1ccc(O)c(O)c1)O[C@H](Cc1ccc(O)c(O)c1)C(=O)NCc1ccccc1` showed an inhibition at 50 µM (SARS-CoV-2 [1]) of 57%, an inhibition at 50 µM (SARS-CoV-2 [2]) of 58% and a CC50 at 48 h [3] of over 100 µM. For the same compound, the inhibition at 5 µM (SARS-CoV-2 [8]) was 18%, the inhibition at 5 µM (SARS-CoV-2 [4]) was 17% and the inhibition (SARS-CoV-2 [6]) was “inactive”. The inhibition (SARS-CoV-2 [7]) was “inactive”.
With `COc1cc(C(=O)O)cc(OC)c1O` the inhibition (SARS-CoV-2 [10]) was “Active”, the Activity (SARS-CoV-2 [19]) was “inactive” and the Activity (SARS-CoV-2 [20]) was “inactive”.
In the case of `COC(=O)[C@@H](Cc1ccc(O)c(O)c1)OC(=O)/C=C/c1ccc(O)c(O)c1` [METHYL ROSMARINATE], the CC50 at 48 h [3] was over 1000 µM, the inhibition (SARS-CoV-2 [10]) was “Active” and the pIC50 (SARS-CoV-2 [13]) was 4.05. For the same compound, the pIC50 (SARS-CoV-2 [14]) was 4.24, the Activity [15] was “inactive” and the CI (SARS-CoV-2 [21]) was 1.74. It also gave a CI (SARS-CoV-2 [22]) of 1.67.
`O=C(/C=C/c1ccc(O)c(O)c1)O[C@H](Cc1ccc(O)c(O)c1)C(=O)N1CCOCC1` showed an inhibition at 50 µM (SARS-CoV-2 [1]) of 8%, an inhibition at 50 µM (SARS-CoV-2 [2]) of 23% and a CC50 at 48 h [3] of over 100 µM. The inhibition at 5 µM (SARS-CoV-2 [4]) was 19%, the inhibition (SARS-CoV-2 [5]) was “inactive” and the inhibition (SARS-CoV-2 [6]) was “inactive”. For the same compound, the inhibition (SARS-CoV-2 [7]) was “inactive”.
Compound `O=C(/C=C/c1ccc(O)c(O)c1)O[C@H](Cc1ccc(O)c(O)c1)C(=O)NCCCCCCCl` has an inhibition at 50 µM (SARS-CoV-2 [1]) of 75%, an inhibition at 50 µM (SARS-CoV-2 [2]) of 66% and a CC50 at 48 h [3] of over 100 µM. For the same compound, the inhibition at 5 µM (SARS-CoV-2 [8]) was 18%, the inhibition at 5 µM (SARS-CoV-2 [4]) was 29% and the inhibition (SARS-CoV-2 [6]) was “inactive”. The inhibition at 0.5 µM (SARS-CoV-2 [12]) was 14%.
For `CCc1cccc(NC(=O)[C@@H](Cc2ccc(O)c(O)c2)OC(=O)/C=C/c2ccc(O)c(O)c2)c1`, the “inhibition (INH)” value (SARS-CoV-2 [1]) was 100%, the “inhibition (INH)” value (SARS-CoV-2 [2]) was 100% and the CC50 at 48 h [3] was 50.7 µM. For the same compound, the “inhibition (INH)” value (SARS-CoV-2 [8]) was 53%, the “inhibition (INH)” value (SARS-CoV-2 [9]) was 14% and the “inhibition (INH)” value (SARS-CoV-2 [4]) was 57%. The “inhibition (INH)” value (SARS-CoV-2 [12]) was 24%, the pIC50 (SARS-CoV-2 [13]) was 4.90 and the pIC50 (SARS-CoV-2 [14]) was 5.57. For the same compound, the Activity [15] was “inactive”.
